Reference: patent US20150173356A1, “COMPOSITIONS OF VOLATILE ORGANIC COMPOUNDS AND METHODS OF USE THEREOF” (Synthetic Genomics, Inc., priority 2009, published 2015)

Experiments:
Assay in all cases: Petri plate (PDA) volatile bioassay, liquid in a small cup in the centre of the plate
Assay type in all cases: cell-based
Conditions in all cases: 2.5-20 microliters in cup, sealed plate, 3 days
[1] = tested on: Phytophthora palmivora
Description: (§1) To test the bioactivity, the mixture was placed in a small cup in the center of a Petri plate with potato dextrose agar (PDA) (Strobel et al., 2001 Microbiology 147: 2943-2950). The volumes of liquid tested were 0, 2.5, 5.0, 10.0 and 20 microliters as per Strobel et al., supra. Then small cubes of fungal inoculum grown on PDA were also applied to the plate. The plates were sealed with parafilm and incubated for 3 days, at which time measurements of hyphal development were made. Also, after 3 days the small plug of fungal inoculum was removed from the plate and transferred to a fresh PDA plate to determine if the test fungus was still alive (capable of growth) and this was recorded.

[2] = tested on: Pythium ultimum
Description: as §1

[3] = tested on: Ganoderma boninense
Description: as §1

CC(C)C(=O)O [isobutyric acid, 2-methyl propanoic acid]
growth inhibition (hyphal development) [1]: inhibited
test fungus still alive (capable of growth) after transfer of inoculum plug to fresh PDA [1]: not killed
growth inhibition (hyphal development) [2]: inhibited
test fungus still alive (capable of growth) after transfer of inoculum plug to fresh PDA [2]: not killed
growth inhibition (hyphal development) [3]: inhibited
test fungus still alive (capable of growth) after transfer of inoculum plug to fresh PDA [3]: not killed

COC(=O)C(C)C [methyl isobutyrate, methyl-2-methylpropanoate]
growth inhibition (hyphal development) [1]: no growth inhibition
growth inhibition (hyphal development) [2]: no growth inhibition
growth inhibition (hyphal development) [3]: no growth inhibition
